The target in assay [1] is T1, beta-catenin/TCF4 interaction (Homo sapiens, UniProt P35222).
T1 construct: host or cells: HEK293
T1 sequence (P35222 1-781): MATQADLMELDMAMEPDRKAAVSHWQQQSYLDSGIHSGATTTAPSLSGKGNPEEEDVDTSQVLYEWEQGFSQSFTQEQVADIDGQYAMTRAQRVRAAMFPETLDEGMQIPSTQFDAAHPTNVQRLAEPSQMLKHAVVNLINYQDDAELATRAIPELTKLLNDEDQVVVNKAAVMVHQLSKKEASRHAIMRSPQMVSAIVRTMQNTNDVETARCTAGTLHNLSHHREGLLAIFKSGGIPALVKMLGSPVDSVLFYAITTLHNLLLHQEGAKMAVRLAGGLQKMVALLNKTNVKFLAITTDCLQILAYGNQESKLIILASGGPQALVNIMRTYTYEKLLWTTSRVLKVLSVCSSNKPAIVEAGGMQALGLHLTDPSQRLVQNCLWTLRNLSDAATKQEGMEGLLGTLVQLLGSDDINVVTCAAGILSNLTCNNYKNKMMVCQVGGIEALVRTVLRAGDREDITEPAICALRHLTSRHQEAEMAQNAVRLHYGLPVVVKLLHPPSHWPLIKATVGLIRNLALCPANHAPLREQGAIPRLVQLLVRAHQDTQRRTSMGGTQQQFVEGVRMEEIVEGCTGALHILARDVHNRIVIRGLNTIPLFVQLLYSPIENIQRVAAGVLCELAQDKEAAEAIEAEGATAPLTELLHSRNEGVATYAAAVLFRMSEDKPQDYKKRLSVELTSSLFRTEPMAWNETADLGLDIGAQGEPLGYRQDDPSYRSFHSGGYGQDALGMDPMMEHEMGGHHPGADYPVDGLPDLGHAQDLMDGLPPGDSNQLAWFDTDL
The format is cell-based. The following applies: read-out: NanoBRET Abs IC50.

Assay [2] concerns beta-catenin driven transcription in HAP1 WT cells. The assay is described as follows: qPCR of beta-catenin driven transcription in HAP1 WT cells (CHIR treated). The following applies: 24-hour treatment. The format is cell-based.
The test system of assay [3] is HAP1 CTNNB1 knockout cells. As to the kind of experiment: qPCR in HAP1 beta-catenin KO cells. The format is cell-based. In general terms: Quantitative PCR measures a nucleic acid by following its amplification.
In assay [4] the target is T2, TCF/LEF luciferase reporter in DLD1 cells (Homo sapiens, UniProt P35222).
T2 sequence (P35222 2-781): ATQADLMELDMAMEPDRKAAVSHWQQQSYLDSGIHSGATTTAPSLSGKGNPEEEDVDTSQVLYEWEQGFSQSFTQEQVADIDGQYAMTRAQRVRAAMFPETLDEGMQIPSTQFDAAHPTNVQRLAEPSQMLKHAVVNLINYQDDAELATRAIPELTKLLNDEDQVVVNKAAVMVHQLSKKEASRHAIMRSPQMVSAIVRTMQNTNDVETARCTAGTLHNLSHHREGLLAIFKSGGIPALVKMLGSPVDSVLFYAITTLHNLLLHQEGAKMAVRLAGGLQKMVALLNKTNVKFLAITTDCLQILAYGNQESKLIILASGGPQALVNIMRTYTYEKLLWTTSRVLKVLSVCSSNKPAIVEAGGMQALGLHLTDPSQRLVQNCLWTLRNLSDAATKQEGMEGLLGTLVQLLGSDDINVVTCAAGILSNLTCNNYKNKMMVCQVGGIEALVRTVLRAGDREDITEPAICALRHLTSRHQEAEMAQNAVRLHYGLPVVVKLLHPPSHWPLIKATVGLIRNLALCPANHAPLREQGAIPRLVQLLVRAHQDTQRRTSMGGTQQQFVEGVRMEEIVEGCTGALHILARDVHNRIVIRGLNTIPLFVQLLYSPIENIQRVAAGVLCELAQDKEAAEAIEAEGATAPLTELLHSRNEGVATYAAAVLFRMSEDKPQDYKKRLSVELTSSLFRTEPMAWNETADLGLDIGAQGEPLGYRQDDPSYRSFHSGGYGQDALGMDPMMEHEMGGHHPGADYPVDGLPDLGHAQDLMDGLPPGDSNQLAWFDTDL
As to the kind of experiment: TCF reporter assay in DLD1 cells (4% or 20% FBS). Type of assay: cell-based. On the technique in general: A reporter such as luciferase makes a cellular process visible.

Assay [5] concerns the target T3, full-length B-Catenin (Uniprot ID P35222) (Homo sapiens, UniProt P35222).
T3 construct: 10 nM full-length B-Catenin (Uniprot ID P35222)
T3 sequence (P35222 1-781): T1 sequence (P35222 1-781)
The format is binding.

Assay [6] deals with COLO320DM cells. As to the kind of experiment: COLO320DM proliferation assay (CellTiter-Glo). The format is cell-based, human. The following applies: read-out: COLO320DM Proliferation Abs IC50. The procedure, abridged:
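COLO320DM cells, 250 cells/well in RPMI-1640 with 4% FBS, attached 18-22 h, then exposed 96 h at 37 °C, 5% CO2 to 7-point 1/2 dilutions from 20 uM to 313 nM. Viability by CellTiter-Glo luminescence; IC50 derived from the dose curve.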
On the technique in general: ATP-based viability assays read luminescence as a measure of living cells.

Where [7] appears, read: read-out: DLD1 4% Abs IC50, DLD1 TCF reporter, 4% FBS.
Where [8] appears, read: read-out: DLD1 4% Abs IC50, DLD1 TCF reporter, 4% FBS, absolute IC50.
Where [9] appears, read: read-out: beta-catenin TCF4 DLD1 cell reporter assay IC50.
The mark [10] stands for this setting: read-out: beta-catenin TCF4 competition FP assay IC50.

This is an account of results in patent US20240360179A1, “STAPLED PEPTIDES AND METHODS THEREOF” (FOG PHARMACEUTICALS, INC., priority 2021, published 2024).

Where two headings read alike, the source gives them in different places.

As to “5hexenyl-MePro-Asp-AllylGly-R5-Asp-3COOHF-Aib-Ala-Phe-Lys*3-PyrS2-3Thi-BztA-GlnR*3-Ala-NH2 [I-430]”, the IC50 in assay [1] is over 10 µM.

As to `Cc1c[nH]c(-c2cnc(NCCNc3ccc(C#N)cn3)nc2-c2ccc(Cl)cc2Cl)n1` [CHIR, CHIR99021, reference compound], the beta-catenin protein levels result in assay [2] was “more than two-fold”. Further, the “expression of AXIN2, SP5, or RNF43” value in assay [3] was “neither CHIR nor peptide A and I-66 affected”.

For the compound “Ac-PL3-Asn-Npg-B5-Asp-3COOHF-Aib-Ala-Phe-Lys*3-PyrS2-2F3MeF-BztA-GlnR*3-Leu-Ser-NH2 [I-144]”, the IC50 in assay [4] (setting [7]) was in the range of 1000 to 5000 nM.

In the case of “Ac-PL3-Asn-Npg-B5-Asp-3COOHF-Ala-Ala-Phe-Lys*3-PyrS2-2F3MeF-BztA-GlnR*3-Leu-Ser-NH2 [I-142]”, in assay [4] (setting [7]), the IC50 was over 5000 nM.

In the case of “Ac-PL3-Asp-Cha-B5-Asp-3COOHF-Ala-Ala-Phe-Lys*3-PyrS2-2F3MeF-BztA-GlnR*3-Leu-NH2 [I-106]”, the IC50 in assay [4] (setting [7]) is at most 1000 nM.

As for “Ac-PL3-Asp-Npg-B5-Asp-3COOHF-Aib-Ala-Phe-Lys*3-PyrS2-2F3MeF-BztA-GlnR*3-Ala-NH2 [I-69]”, the IC50 is at most 1000 nM in assay [4] (setting [7]), under 50 nM in assay [5] (read-out: beta-Catenin FP IC50) and at most 10 µM in assay [6].

Regarding “Ac-PL3-Asp-Npg-B5-Asp-3COOHF-Aib-Ala-Phe-Lys*3-PyrS2-2F3MeF-BztA-GlnR*3-Leu-Ser-NH2 [I-138]”, the IC50 in assay [4] (setting [7]) is at most 1000 nM; in assay [6], at most 10 µM.

Take “Ac-PL3-Asp-Npg-B5-Asp-3COOHF-Aib-Ala-Phe-Lys*3-PyrS2-3Thi-BztA-GlnR*3-Glu-Ala-NH2 [I-342]”: the IC50 in assay [4] (setting [8]) is at most 1000 nM.

For “Ac-PL3-Asp-Npg-B5-Asp-3COOHF-Aib-Ala-Phe-TriAzLys*3-PyrS2-3Thi-BztA-sCH2S*3-Ala-NH2 [I-262]”, the IC50 in assay [4] (setting [7]) was at most 1000 nM; in assay [6], at most 10 µM.

Regarding “Ac-PL3-Asp-Npg-B5-Asp-3COOHF-Aib-Ala-Phe-[2_6-naph]Cys-PyrS2-3Thi-BztA-Cys-Ala-NH2 [I-566]”, the IC50 is over 20000 nM in assay [4] (setting [9]) and 58 nM in assay [5] (setting [10]).

As for “Ac-PL3-Asp-Npg-B5-Asp-3COOHF-Aib-Ala-Phe-[3_3-biph]Cys-PyrS2-3Thi-BztA-Cys-Ala-NH2 [I-567]”, the IC50 is over 20000 nM in assay [4] (setting [9]) and 120 nM in assay [5] (setting [10]).

With “Ac-PL3-Asp-Npg-B5-Asp-3COOHF-Aib-Ala-Phe-sAla*3-PyrS2-3Thi-BztA-TriAzLys*3-Ala-NH2 [I-336]”, the IC50 in assay [4] (setting [8]) is 1000 to 5000 nM.

Consider “Ac-PL3-Asp-Npg-B5-Asp-3COOHF-Ala-Aib-Phe-Lys*3-PyrS2-3Thi-BztA-GlnR*3-Ala-NH2 [I-442]”, for which the IC50 in assay [1] is over 10 µM.

With “Ac-PL3-Asp-Npg-B5-Asp-3COOHF-Ala-Ala-Phe-Lys*3-PyrS2-3Thi-BztA-GlnR*3-Prool [I-64]”, the IC50 in assay [4] (setting [7]) lay within 1000 to 5000 nM; in assay [6], 10 to 20 µM.

In the case of “Ac-PL3-Asp-Npg-B5-Asp-3COOHF-Ala-Ala-Phe-Lys*3-PyrS2-3Thi-BztA-hGlnR*3-Ala-NH2 [I-183]”, the IC50 in assay [4] (setting [7]) lay within 1000 to 5000 nM.

Consider “Ac-PL3-Asp-Npg-B5-Asp-3COOHF-Ala-Ala-Phe-TriAzLys*3-PyrS2-3Thi-BztA-sAla*3-Ala-NH2 [I-337]”, for which, in assay [4] (setting [8]), the IC50 is at most 1000 nM.

Turning to “Ac-PL3-Asp-Npg-B5-Asp-3COOHF-Ala-Ala-Phe-iPrLys*3-PyrS2-3Thi-BztA-hGlnR*3-Ala-NH2 [I-187]”, in assay [4] (setting [7]), the IC50 was over 5000 nM.

For the compound “Ac-PL3-Asp-Npg-B5-Asp-3COOHF-Ala-Ala-Phe-sAla*3-PyrS2-3Thi-BztA-TriAzLys*3-Ala-NH2 [I-338]”, the IC50 in assay [4] (setting [8]) is at most 1000 nM.

Consider “Ac-PL3-Asp-Npg-B5-Asp-3COOHF-Ala-Ala-Phe-sAla*3-PyrS2-3Thi-BztA-TriAzLys*3-NH2 [I-24]”, for which, in assay [4] (setting [7]), the IC50 fell in the range of 1000 to 5000 nM.

In the case of “Ac-PL3-Asp-Npg-B5-Asp-3COOHF-Cbg-Ala-Phe-Lys*3-PyrS2-2F3MeF-BztA-GlnR*3-Leu-Ser-NH2 [I-140]”, in assay [4] (setting [7]), the IC50 is at most 1000 nM.

Take “Ac-PL3-Asp-Npg-B5-Asp-3COOHF-Cpg-Ala-Phe-Lys*3-PyrS2-2F3MeF-BztA-GlnR*3-Leu-Ser-NH2 [I-139]”: in assay [4] (setting [7]), the IC50 was at most 1000 nM.

On to “Ac-PL3-Asp-Npg-B5-Asp-3COOHF-CyLeu-Ala-Phe-Lys*3-PyrS2-2F3MeF-BztA-GlnR*3-Leu-Ser-NH2 [I-141]”, for which the IC50 in assay [4] (setting [7]) was at most 1000 nM.

As for “Ac-PL3-Asp-Npg-B5-Asp-3COOHF-Npg-Ala-Phe-Lys*3-PyrS2-2F3MeF-BztA-GlnR*3-Ala-NH2 [I-99]”, in assay [4] (setting [7]), the IC50 is at most 1000 nM.

For the compound “Ac-PL3-Asp-Npg-B5-Asp-3COOHF-Npg-Ala-Phe-Lys*3-PyrS2-2F3MeF-BztA-GlnR*3-Leu-NH2 [I-109]”, the figures for the IC50 in assay [4] (setting [7]) and in assay [1] were 1000 to 5000 nM and over 10 µM, respectively.

For the compound “Ac-PL3-Asp-Npg-B5-Asp-3COOHF-nLeu-Ala-Phe-Lys*3-PyrS2-3Thi-BztA-GlnR*3-Ala-NH2 [I-70]”, the figures for the IC50 in assay [4] (setting [7]) and in assay [6] were at most 1000 nM and at most 10 µM, respectively.

“Ac-PL3-Asp-Npg-B5-Asp-TfeGA-Ala-Ala-Phe-Lys*3-PyrS2-2F3MeF-BztA-GlnR*3-Leu-NH2 [I-128]”: the IC50 in assay [4] (setting [7]) lay within 1000 to 5000 nM.

Regarding “Ac-PL3-Asp-Npg-B5-Asp-TfeGA-Ala-Ala-Phe-Lys*3-PyrS2-2F3MeF-BztA-GlnR*3-Val-NH2 [I-129]”, the IC50 in assay [4] (setting [7]) was in the range of 1000 to 5000 nM.

Take “Ac-PL3-Glu-Npg-B5-Glu-3COOHF-Aib-Ala-Phe-Lys*3-PyrS2-2F3MeF-BztA-GlnR*3-Ala-NH2 [I-291]”: the IC50 in assay [4] (setting [7]) was in the range of 1000 to 5000 nM.

As for “Ac-PL3-aThr-Npg-B5-Asp-3COOHF-Aib-Ala-Phe-Lys*3-PyrS2-3Thi-BztA-GlnR*3-Ala-NH2 [I-163]”, the IC50 in assay [4] (setting [7]) is over 5000 nM.
